Earlier results in patent US11389520B2, “Modified tetra-acylated neisserial LPS” (priority 2016, dated 2022).

Molecular target: human TLR4/MD-2 complex (Homo sapiens, UniProt O00206+Q9Y6Y9)
Sequence (O00206 24-839): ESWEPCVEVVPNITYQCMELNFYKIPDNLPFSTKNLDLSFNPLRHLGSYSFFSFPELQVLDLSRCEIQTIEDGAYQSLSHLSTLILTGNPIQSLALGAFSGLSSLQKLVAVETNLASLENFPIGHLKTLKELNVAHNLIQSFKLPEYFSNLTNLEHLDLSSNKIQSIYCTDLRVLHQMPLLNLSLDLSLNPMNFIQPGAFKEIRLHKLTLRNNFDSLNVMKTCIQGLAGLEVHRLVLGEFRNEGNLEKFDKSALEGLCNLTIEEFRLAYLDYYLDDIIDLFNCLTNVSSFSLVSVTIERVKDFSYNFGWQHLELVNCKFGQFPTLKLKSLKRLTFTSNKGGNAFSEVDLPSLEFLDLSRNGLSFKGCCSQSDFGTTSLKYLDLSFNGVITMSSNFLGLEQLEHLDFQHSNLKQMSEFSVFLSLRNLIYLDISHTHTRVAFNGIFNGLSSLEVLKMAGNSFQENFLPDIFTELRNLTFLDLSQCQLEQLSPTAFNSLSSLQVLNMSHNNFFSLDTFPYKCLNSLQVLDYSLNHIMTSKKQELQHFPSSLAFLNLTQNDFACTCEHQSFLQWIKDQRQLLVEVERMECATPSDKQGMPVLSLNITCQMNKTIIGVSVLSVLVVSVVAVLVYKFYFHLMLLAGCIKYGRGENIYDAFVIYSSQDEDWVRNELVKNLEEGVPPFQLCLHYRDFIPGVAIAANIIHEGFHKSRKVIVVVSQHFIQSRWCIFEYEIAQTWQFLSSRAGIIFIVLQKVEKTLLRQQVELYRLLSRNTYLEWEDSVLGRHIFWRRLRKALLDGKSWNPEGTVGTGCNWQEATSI
Sequence (Q9Y6Y9 17-160 limits assumed): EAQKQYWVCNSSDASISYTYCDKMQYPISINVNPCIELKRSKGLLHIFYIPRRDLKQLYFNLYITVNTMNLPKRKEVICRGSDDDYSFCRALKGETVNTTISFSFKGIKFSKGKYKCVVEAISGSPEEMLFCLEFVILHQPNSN

Structure (SMILES): CCCCCCCCCCC[C@@H](O)CC(=O)N[C@H]1[C@H](OC[C@H]2O[C@H](OP(=O)(O)O)[C@H](NC(=O)C[C@H](O)CCCCCCCCCCC)[C@@H](OC(=O)C[C@H](O)CCCCCCCCCCC)[C@@H]2O)O[C@H](CO)[C@@H](OP(=O)(O)O)[C@@H]1OC(=O)C[C@H](O)CCCCCCCCCCC [lipid IVa]
- Action on the human TLR4/MD-2 complex: antagonist
